Reference: patent US20210085692A1, “AGENTS, COMPOSITIONS AND METHODS FOR TREATING AND PREVENTING ALZHEIMER'S DISEASE” (UNIVERSITY OF SOUTHERN CALIFORNIA, priority 2018, published 2021)

Experiments:
[1] = Phase 1 multiple ascending dose clinical trial: plasma levels after weekly intravenous infusion; type: in vivo, human; settings: for Cmax: human, plasma
Protocol: (§1) Clinical Trials were carried out in adult humans (see gov Identifier: NCT02221622 for the ongoing Phase 1b/2a clinical trial at https://clinicaltrials.gov/ct2/show/NCT02221622).
(§2) A randomized double-blind, placebo controlled, multiple ascending dose, phase 1 clinical trial was conducted in patients with mild cognitive impairment due to AD or mild AD or dementia.
(§3) Participants were randomly assigned to receive weekly intravenous infusion of either 2 mg, 4 mg, or 6 mg of Allo or placebo (N=6/group) for 12 weeks. Primary outcomes were to assess safety, tolerability and determine maximally tolerated dose (MTD). Secondary exploratory outcomes were the feasibility and impact of Allo on MRI indicators of regeneration and cognition. Lymphocyte derived iPSCs differentiated to neural stem cells were used to develop biomarker strategy to identify potential regenerative responders.
The standard Phase I dose escalation double-blind, placebo-controlled, single site trial included 24 research participants in three dose cohorts. Each cohort included 8 research participants randomized to drug or placebo in a 6:2 allocation ratio. Cohorts as follows: • Dosing cohort 1) 2 mg Allo or placebo • Dosing cohort 2) 4 mg Allo or placebo • Dosing cohort 3) 6 mg Allo or placebo Each dose cohort was separated by 6 weeks to process, obtain, and assess all safety and tolerability data.
The trial evaluated three doses (2.0, 4.0 and 6.0 mg) of allopregnanolone (Allo) in a delivery vehicle of 6% sulfobutylether-β-cyclodextrin and 0.9% sodium chloride and placebo containing an equal volume of 0.9% sodium chloride for injection USP administered by intravenous sinfusion once per week for 12 weeks. Although the dosing study is not powered to detect statistically significant treatment differences on MRI outcomes and cognition, the MRI is required per FDA safety concerns with respect to amyloid-related imaging abnormalities, such as micro hemorrhages, as per FDA correspondence. Grouped differences from placebo-treated participants were evaluated in an exploratory fashion using the outcomes planned for the larger phase 2, proof of concept trial in order to obtain parameter estimates for the trial design.]
Allo dose selection of 2.0, 4.0 and 6.0 mg was determined by pre-clinical dose response analyses for neurogenesis, an IV bridging study in 3×TgAD mice, prior clinical studies, physiologically-based pharmacokinetics (PBPK) modeling and simulations of pharmacodynamic responses using available pre-clinical and clinical data of non-sedative to mildly sedative doses Planned study Allo doses are within the FDA requirement to not exceed 157 nmol/L (50 ng/ml) plasma concentration Planned Allo dose equivalencies based on 70 kg human are: 2.0 mg=0.028 mg/kg; 4.0 mg=0.056/mg/kg; 6.0 mg=0.084 mg/kg. With respect to safety, intravenous doses of Allo in the same dose range as those for this trial have been administered previously with acceptable safety and. […] Allo in sulfobutylether-β-cyclodextrin and 0.9% sodium chloride formulation was administered intravenously over 30 minutes once per week for 12 weeks. Participants were monitored under medical supervision for a minimum of two hours after each dose. The regimen for Allo administration is based on preclinical analyses that indicate that a once per week treatment regimen results in increased neurogenesis with reduction in AD pathology.

[2] = tested on: patients with mild cognitive impairment due to AD or mild AD or dementia; assay: Phase 1 clinical trial: safety, tolerability and maximally tolerated dose; type: in vivo, human
Protocol: as §1, §2
as §3, with “Lymphocyte derived iPSCs differentiated to neural stem cells were used to develop biomarker strategy to identify potential regenerative responders.” left out
The trial evaluated three doses (2.0, 4.0 and 6.0 mg) of allopregnanolone (Allo) in a delivery vehicle of 6% sulfobutylether-β-cyclodextrin and 0.9% sodium chloride and placebo containing an equal volume of 0.9% sodium chloride for injection USP administered by intravenous sinfusion once per week for 12 weeks. […] Grouped differences from placebo-treated participants were evaluated in an exploratory fashion using the outcomes planned for the larger phase 2, proof of concept trial in order to obtain parameter estimates for the trial design.] […]

[3] = tested on: patients with mild cognitive impairment due to AD or mild AD or dementia; assay: Phase 1 clinical trial: MRI indicators of regeneration (gray matter, hippocampal volume); type: in vivo, human
[4] = tested on: patients with mild cognitive impairment due to AD or mild AD or dementia; assay: Phase 1 clinical trial: cognition (ADAScog14, Cog state); type: in vivo, human; settings: 12 weeks, once per week
Protocol: as §2, §3
The standard Phase I dose escalation double-blind, placebo-controlled, single site trial included 24 research participants in three dose cohorts. […]
The trial evaluated three doses (2.0, 4.0 and 6.0 mg) of allopregnanolone (Allo) in a delivery vehicle of 6% sulfobutylether-β-cyclodextrin and 0.9% sodium chloride and placebo containing an equal volume of 0.9% sodium chloride for injection USP administered by intravenous sinfusion once per week for 12 weeks. […] Grouped differences from placebo-treated participants were evaluated in an exploratory fashion using the outcomes planned for the larger phase 2, proof of concept trial in order to obtain parameter estimates for the trial design.]

[5] = tested on: humanized ApoE3,3, ApoE4,4 and ApoE3,4 mice; assay: Novel Object Recognition (NOR) memory test; type: in vivo; settings: for Novel Object Discrimination Index / Novel Object Exploration time: vs saline
Protocol: To access impact of Allopregnanolone (Allo) on memory function, humanized ApoE3,3, ApoE4,4 and ApoE3,4 mice were tested using Novel Object Recognition (NOR) in accordance with published literature (Antunes and Biala, Cogn Process. 2012 May; 13(2): 93-110; Ennaceur, Behav Brain Res. 2010 Dec. 31; 215(2):244-54. doi: 10.1016/j.bbr.2009.12.036. Epub 2010 Jan. 7; Leger et al., Nat Protoc. 2013 December; 8(12):2531-7. doi: 10.1038/nprot.2013.155. Epub 2013 Nov. 21; Piterkin et al., Learn. Mem., 15 (2008), pp. 785-791; Taglialatela et al., Behav Brain Res. 200(1): 95-99. 2009).
Behavioral NOR testing was conducted following 24 weekly injections of Allopregnanolone (Allo; 1.5 mg/mL) or saline (0.9%). The Allo and saline used to treat the mice were identical to the Allo and saline used in the clinical trial (ClinicalTrials.gov Identifier: NCT02221622).
Behavioral testing and analysis of behavioral outcomes were conducted blind to the experimental condition. Code for treatment groups was unblinded for statistical analyses by analyst who was independent of behavioral testing.
Difference in exploration time (in seconds) was calculated by subtracting the time spent exploring the familiar object from that of the novel object (Tn−Tf) and denoted by ‘Df’. Second, a ratio of the difference in exploration time to the total time spent exploring was calculated (Tn−Tf/Tn+Tf) and denoted by Discrimination Index (DI). The DI can vary between +1 and −1, where a positive score indicates more time spent with the novel object, a negative score indicates more time spent with the familiar object, and a zero score indicates a null preference (Antunes and Biala, 2012). The DI adjusts for difference in total exploration time (Broadbent et al.). Statistical analyses were conducted using Mann-Whitney test and p-value of less than 0.05 was considered significant.

[6] = intravenous doses in the same dose range, earlier studies; cited from earlier work
[7] = ApoE3:3 females and males, 24 weekly injections

## CC(=O)[C@H]1CC[C@H]2[C@@H]3CC[C@H]4C[C@H](O)CC[C@]4(C)[C@H]3CC[C@]12C [Allo, 3α-hydroxy-5α-pregnan-20-one]
[1]; 2, 4 and 6 mg cohorts
  Correlation (R) of Cmax with Allo delivered in mg/kg dose: 0.77
[1]; from start of 30 minute intravenous infusion, AD patients
  Time to peak plasma levels: ≤ 30 min
[1]; 2 mg intravenous infusion
  Cmax: 63 ± 21 nM
[1]; 4 mg intravenous infusion
  Cmax: 130 ± 26 nM
[1]; 6 mg intravenous infusion
  Cmax: 248 ± 84 nM
[2]; intravenous infusion
  MTD, established by onset of sedation: > 6 mg
[2]; twelve week exposure, multiple doses once per week
  Adverse effects, serious adverse events, ARIA: no reportable adverse effects, serious adverse events or ARIA
[3]; Allo 4 mg cohort, 12 weeks
  Left hippocampal volume (subfield analysis): increase in left hippocampal volume
[3]; human subjects over 55 years having Apo E4 genetic marker
  Brain mass: increased brain mass
[3]; structural analysis, 12 weeks
  MRI based indicators of gray matter volume: consistent with regeneration in select brain regions
[4]
  Cognitive function measured by ADAScog14: not improved
[4]; some indicators
  Cog state indicators: consistent with improvement
[5]; [7]
  Novel Object Discrimination Index: no effect
  Novel Object Exploration time: no effect, either positive or negative
[5]; ApoE 3:4 female mice, p=0.05
  Exploration of the novel object: significantly increased
[5]; ApoE 3:4 female mice, p=0.06
  Ability to discriminate between novel vs familiar object (Discrimination Index): trended towards a significant increase
[5]; ApoE 4/4 females and males, p<0.05
  Novel Object Discrimination Index: significantly increased
[5]; ApoE 4:4 females, 24 weekly injections
  Novel Object Exploration time: significantly increased
[5]; ApoE4:4 males, 24 weekly injections
  Novel Object Exploration time: trended towards an increase
[6]
  TEAEs (nausea, mild sedation, fatigue, flushing, anxiety): mild and transient
